Earlier results in patent US6503920B1, “Cabergoline and pramipexole: new uses and combinations” (Pharmacia & Upjohn Company, priority 1998, dated 2003).

What was measured:
[1] = test system: PSP patients; conditions: 120 mg/day, 2-week open label, two patients
[2] = test system: PSP patients; conditions: 750-1500 mg per day
[3] = test system: PSP patients
[4] = test system: PSP patients; conditions: controlled trial of 7 subjects
[5] = test system: PSP patients; conditions: controlled trial
[6] = test system: PSP patients; conditions: 10 patients, double blind crossover

In the case of `c1ccc2c(c1)OCC(C1=NCCN1)O2` (stereo not drawn) [Idazoxan], the marginal improvement [1] is listed as 12-34% and the side effects [1] is listed as “sympathetic side effects were common”.
For `N[C@@H](Cc1ccc(O)c(O)c1)C(=O)O` [L-dopa], the “patients showing no effect” value [2] is listed as 44%, the “response rate showing mild to moderate improvement on the basis of clinical impressions” value [2] is listed as 54% and the “most common side effects reported” value [3] is listed as “development of hallucinations”.
For `CCN(CC)C(=O)N[C@H]1C=C2c3cccc4[nH]cc(c34)C[C@H]2N(C)C1` [Lisuride], the “overall result of the trial” value [4] is given as “not any significant results” and the “patients with mild improvement” value [4] is given as “two patients had a mild improvement”.
In the case of `CCCN1C[C@H](CSC)C[C@@H]2c3cccc4[nH]cc(c34)C[C@H]21` [Pergoline], the “subjects with mild antiparkinsonian effects” value [5] is listed as 2/3.
In the case of `CCN1C(=O)CC2(CCN(C)CC2)C1=O` [RS-86], the “motor or cognitive changes” value [6] is listed as “no consistent motor or cognitive changes”.
